Consider 12 compounds from PubChem BioAssay (NCI).

Molecules are shown by their SMILES.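 Five compound concentrations were applied to cells in 96-well plates for 48 hours; endpoints were derived by simple linear interpolation of the resulting dose-response curve. The concentration for 50% growth inhibition is given as GI50. TGI denotes the concentration required for complete inhibition of growth.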

Test systems include A549 NSCLC; UACC-62 melanoma; SF-539 CNS; HL-60(TB) leukemia; HOP-62 NSCLC; K-562 leukemia; OVCAR-3 ovarian; HOP-92 NSCLC; OVCAR-5 ovarian.
Holding throughout (experiment): DTP human tumour cell line panel, 48 h

Regarding `O=C1C2=C(CCCCC2)C2CCCCC12O` (stereo not given), the concentration for total growth inhibition (TGI) in the experiment with A549 NSCLC, in the experiment with UACC-62 melanoma, with SF-539 CNS, in the experiment with HL-60(TB) leukemia, in the experiment with HOP-62 NSCLC and in the experiment on K-562 leukemia was above 100 µM each time. In addition, the TGI in the experiment with OVCAR-3 ovarian and in the experiment on HOP-92 NSCLC was above 100 µM in each case.

`O=C1OC(c2ccc(Cl)cc2)(c2ccc(Cl)cc2)c2c1ccc1ccccc21`: the TGI in the experiment on A549 NSCLC, in the experiment with UACC-62 melanoma, in the experiment on HL-60(TB) leukemia, with OVCAR-5 ovarian, in the experiment on K-562 leukemia and in the experiment with OVCAR-3 ovarian was above 100 µM throughout.

Consider `N/C(=N\N=C\c1cc2c(cc1Cl)OCO2)NO`, for which the concentration for total growth inhibition (TGI) in the experiment with A549 NSCLC was above 100 µM; with UACC-62 melanoma, above 84.1 µM; in the experiment with SF-539 CNS, above 95.6 µM; in the experiment on HL-60(TB) leukemia, 41.7 µM; in the experiment with OVCAR-5 ovarian it was above 61.5 µM; in the experiment on HOP-62 NSCLC, above 100 µM. Also, the total growth inhibition concentration (TGI) was above 100 µM in the experiment with K-562 leukemia, above 24.6 µM in the experiment with OVCAR-3 ovarian and above 95.1 µM in the experiment with HOP-92 NSCLC.

For `CC(=O)Nc1ccc(-c2nnc(SCC(=O)Nc3cccc([N+](=O)[O-])c3)o2)cc1`, the TGI with A549 NSCLC is 46.3 µM; in the experiment with UACC-62 melanoma, 23.7 µM; in the experiment on SF-539 CNS it was 31.4 µM; in the experiment with HL-60(TB) leukemia, 58.2 µM; with OVCAR-5 ovarian, 50.2 µM; in the experiment with HOP-62 NSCLC, 45.8 µM. Further, the concentration for total growth inhibition (TGI) with K-562 leukemia is 57.5 µM; in the experiment on OVCAR-3 ovarian, 40.5 µM; in the experiment with HOP-92 NSCLC it was 35.3 µM.

For `C/C(=N\NC(=O)c1cccnc1)c1cccc(/C(C)=N/NC(=O)c2cccnc2)n1.CC(=O)[O-].CC(=O)[O-].[Zn+2]`, the TGI with A549 NSCLC is above 57.4 µM; with UACC-62 melanoma it was 10.7 µM; in the experiment with SF-539 CNS it was 6.55 µM; in the experiment on HL-60(TB) leukemia it was 2.86 µM; in the experiment with OVCAR-5 ovarian it was above 100 µM; with HOP-62 NSCLC, 65.6 µM. The TGI was above 100 µM with OVCAR-3 ovarian and 6.47 µM in the experiment on HOP-92 NSCLC. Moreover, the results for the GI50 in the experiment on HL-60(TB) leukemia, in the experiment with OVCAR-3 ovarian and in the experiment with HOP-92 NSCLC were 0.492 µM, 0.843 µM and 1.55 µM, respectively.

On to `N#Cc1ccc(Nc2cnc3ccc(N)cc3n2)cc1`, for which the TGI in the experiment with A549 NSCLC, in the experiment on UACC-62 melanoma, in the experiment on SF-539 CNS, in the experiment with HL-60(TB) leukemia, with OVCAR-5 ovarian and in the experiment on HOP-62 NSCLC was above 100 µM each time. The concentration for total growth inhibition (TGI) in the experiment on K-562 leukemia, with OVCAR-3 ovarian and in the experiment with HOP-92 NSCLC was above 100 µM each time.

Regarding `COC(=O)[C@@]12OC[C@]34C([C@@H](O)C1O)[C@@]1(C)CC(=O)C(O)=C(C)C1C[C@H]3OC(=O)[C@H](OC(=O)/C=C(/c1ccccc1)C(F)(F)F)[C@H]42` (stereo not given in full), the total growth inhibition concentration (TGI) was 20.2 µM in the experiment with A549 NSCLC; 7.31 µM with UACC-62 melanoma; 3.75 µM with SF-539 CNS; 1.41 µM with HL-60(TB) leukemia; above 25 µM in the experiment with OVCAR-5 ovarian; above 25 µM in the experiment on HOP-62 NSCLC. Besides, the TGI with K-562 leukemia was above 25 µM; in the experiment with HOP-92 NSCLC, 17.1 µM.

On to `CC1(C)O[C@H]2OC(CO)C(OS(C)(=O)=O)[C@H]2O1` (stereo not given in full), for which the TGI in the experiment on A549 NSCLC, in the experiment with UACC-62 melanoma, in the experiment on SF-539 CNS, with HL-60(TB) leukemia, in the experiment on OVCAR-5 ovarian and in the experiment on HOP-62 NSCLC was above 100 µM throughout. In addition, the TGI in the experiment with OVCAR-3 ovarian and in the experiment on HOP-92 NSCLC was above 100 µM in each case.

For the compound `Nc1nn(CC(O)CO)c(=O)s1` (stereo not given), the total growth inhibition concentration (TGI) in the experiment with A549 NSCLC, with UACC-62 melanoma, in the experiment with SF-539 CNS, in the experiment on HL-60(TB) leukemia, in the experiment with OVCAR-5 ovarian and with HOP-62 NSCLC was above 100 µM each time. The TGI in the experiment with K-562 leukemia and in the experiment with OVCAR-3 ovarian was above 100 µM in each case.

On to `N#CCSc1c(-c2ccccc2)c(=O)n(-c2ccccc2)c(=S)n1-c1ccccc1`, for which the TGI in the experiment on A549 NSCLC, with UACC-62 melanoma, in the experiment on HL-60(TB) leukemia, in the experiment on OVCAR-5 ovarian, in the experiment with HOP-62 NSCLC and in the experiment with K-562 leukemia was above 100 µM each time. Also, the TGI in the experiment on OVCAR-3 ovarian and in the experiment on HOP-92 NSCLC was above 100 µM throughout.

For `C[C@H](CN1CC(=O)NC(=O)C1)N1CC(=O)NC(=O)C1`, the TGI in the experiment with A549 NSCLC, in the experiment on UACC-62 melanoma, in the experiment on SF-539 CNS, with OVCAR-5 ovarian, in the experiment on HOP-62 NSCLC and with K-562 leukemia was above 100 µM in each case. The TGI in the experiment on OVCAR-3 ovarian and in the experiment on HOP-92 NSCLC was above 100 µM each time.

Take `NC(=O)CCC(NC(=O)c1cccc2c(=O)c3ccccc3[nH]c12)C(=O)O` (stereo not given): the TGI in the experiment with A549 NSCLC, in the experiment on UACC-62 melanoma, with HL-60(TB) leukemia, in the experiment with OVCAR-5 ovarian, with HOP-62 NSCLC and in the experiment with K-562 leukemia was above 100 µM each time. Besides, the TGI with OVCAR-3 ovarian and with HOP-92 NSCLC was above 100 µM in each case.

The TGI is the concentration at which net growth stops. A high value points to lower sensitivity of the cells. Usually GI50 stands for the concentration at which growth is held to half of that of the control.
